# Experimental data reported in patent EP0151577B1 (priority 1983, dated 1984).
# How the values were obtained:
# [1] = tested on: Tension sanguine; assay: Cardiovascular activity: blood pressure; assay type: in vivo
# Description: (§1) Le protocole experimental était celui décrit dans "Sugar Derivatives of Indolamines. part V: Cardiovascular Effects and "Anti-stress" Activity of Desoxyfructose Derivative of Serotonin and 5-Metho-xy- tryptamin", L. Mester, M. Mester, K.P. Bhargava, C. Labrid, G. Dureng and M. Cheucle, THROMBOSIS […], 15,245,1979.
# [2] = tested on: souris; assay: Tremor score in mice pretreated with a MAO inhibitor (Harmaline); assay type: in vivo; details: for Score total (tremblements): Harmaline pretreatment, 5 souris
# Description: Les conditions expérimentales étaient les suivantes:
# Chez des souris prétraitées par un inhibiteur de la MAO (Harmaline 25 mg/kg/ P.O.), I'injection de 5HTP (1 heure après l'IMAO) entraîne l'apparition de tremblements plus ou moins généralisés, accompagnés ou non d'hyperactivité motrice et qui sont dus a I'accumulation de sérotonine non dégradée au niveau des récepteurs post-synaptiques cérébraux. On peut établir pour chaque souris une cotation chiffrée suivant l'intensité des symptômes observes au cours du temps (cotation toutes les 5 min. entre la 5ème et la 45ème min. après I'injection de 5 HTP puis toutes les 15 min. jusqu'à la 75ème min.).
# On additionne en une score total tous les chiffres obtenus aux différents temps sur des lots de 5 ou 10 souris.
# Les actions du 5 HTP ont été comparées a celles du DF-5HTP.
# [3] = tested on: souris; assay: Rotarod test
# Description: Les mesures ont été faites a 15, 30 et 60 minutes après I'administration par voie intrapéritonéale (i.p.) a des souris.
# [4] = tested on: Rythme cardiaque; assay: Cardiovascular activity: heart rate; assay type: in vivo
# Description: as §1
# [5] = Acute toxicity in the mouse, DL50 i.v. (Behrens-Karber); details: in vivo, iv, souris, survivors checked 15 days after administration, read-out: DL 50 i.v.
# Description: D'autres études pharmacologiques ont été entreprises, en particulier pour apprécier la toxicite aigue chez la souris. Les divers produits étudiés sont administrés a doses croissantes en progression arithmetique a des lots de 5 souris femelles SWISS, EOPS, NMRI/Han pesant 23 a 24 g.
# Les produits sont solubilises dans I'eau distillée. Les DL 50 sont calculées par la méthode de BEHRENS (B.) et KARBER (C.). Le nombre d'animaux survivants dans les differents lots est vérifié 15 jours après I'administration des produits. La toxicité aigue (DL 50) exprimée en g/kg est supérieure a 5, avec la voie d'administration i.v. pour le DF-5HTP un produit représentatif selon l'invention.
# [6] = tested on: DOPA-oxydase; assay: Inhibition in the DOPA-oxydase + DOPA system; assay type: biochemical, champignons; details: concentrations inférieures a 10-^4M; figure 1
# Description: D'autres essais ont été entrepris pour mesurer l'inhibition exercée par la DF-5HTP dans le système DOPA-oxydase + DOPA, par comparaison avec la désoxyfructosérotonine (DFS). Pour ce qui concerne l'inhibition de la DOPA-oxydase, on pourra se reporter a la methode de N.H. Horowitz, M. Fling et et C. Horn "Tyrosinase", dans Methods in Enzymology Vol. XVII- A, p. 615, Editors: Tabor and Tabor, Ac. Press, 1970.
# L'effet de la désoxyfructo-sérotonine (DFS) sur les Mycobacteries de la lèpre est attribue a son effet inhibiteur sur la DOPA-oxydase de M. leprae. Une DOPA-oxydase semblable, isolée de champignons, est commercialisée (SIGMA) et a servi comme modèle afin de comparer l'effet inhibiteur de la DFS et du désoxyfructo-5-hydroxytryptophane sur cette DOPA-oxydase.
# La figure 1 est un graphique dans lequel on a porté en abscisses la concentration de I'agent de traitement utilise et en ordonnées les valeurs de la coloration du milieu mesurée a 540 mµ, celles-ci étant en effet representatives de la concentration en substance capable de colorer le milieu. En presence d'un inhibiteur, la formation de la coloration est empêchée. Ainsi, plus les valeurs portées en ordonnées sont faibles, meilleure est I'inhibition procurée par le compose essayé.
# [7] = tested on: cellules des neuroblastomes; assay: Inhibition of serotonin incorporation into neuroblastoma cells in vitro; assay type: cell-based; details: 0°C
# [8] = tested on: M. Leprae; assay: Multiplication of M. leprae in mouse foot pads; assay type: in vivo, Mycobacterium leprae; details: 20 mg/kg par voie orale, daily from inoculation
# Description: Le tableau 7 contient les résultats d'essai concernant l'activité du DF-5HTP sur les M. leprae sur les pattes de souris. Le protocole experimental était le suivant:
# MESTER, L., and BALAKRISHNAN, S., Desoxyfructo-serotonin: First Human Metabolite with Antileprosy Activity. Acta Lepr. N°83, 21, 1981.
# La dose de DF-5HTP était de 0,5 mg par 5 g de nourriture et par souris. Cette dose était administrée tous les jours a partir de la date d'inoculation. Les essais ont porté sur un lot de 24 souris.
# Protocole: Sur la patte de chaque souris on a inoculé 5 x 10^6 M.leprae montrant un index morphologique (I. M.) = 2 %. Les chiffres suivis par X indiquent la multiplication de M. leprae initialement inoculé. (Pour la méthode utilisée voir MESTER, L., and BALAKRISHNAN, S., Desoxyfructo-serotonin: First Human Metabolite with Antileprosy Activity, Acta Lepr. N° 83, 21,1981.
# [9] = tested on: souris; assay: Anticonvulsant activity, MES; assay type: in vivo
# Description: Activite anticonvulsivante (MES): % de protection Temps de sommeil au pentobarbital: WYATT, R.J., ZARKONE, V. […], K., DEMENT, W.C., SMYDER, F. and SJOERDSMA, A., Effects of 5-Hydroxytryptophan on the sleep of normal human subjects. Electroencephaly and Clinical Neurophysiology 30, 5051971.
# [10] = 10 mg par voie cérébroventriculaire
structure (smiles),measurement,setting,value
"O=C(O)C(Cc1c[nH]c2ccc(O)cc12)NCC1(O)OCC(O)C(O)C1O (stereo not drawn) [DF-5HTP, N-1-desoxyfructo-5-hydroxytryptophane]",Tension sanguine Durée,[1]; [10],50 min
same,Tension sanguine Mesure à,[1]; [10],1 min
same,Tension sanguine Pic,[1]; [10],5 min
same,Tension sanguine Durée,[1]; 100 mg par voie intraveineuse,30 min
same,Tension sanguine Mesure à (min),[1]; 100 mg par voie intraveineuse,immé-diat
same,Tension sanguine Pic,[1]; 100 mg par voie intraveineuse,1 min
same,Score total (tremblements),[2]; 150 mg/kg S.C. (mole for mole 75 mg/kg of 5 HTP),0
same,Score total (tremblements),[2]; 500 mg/kg S.C.,0
same,activité dans l'essai des tremblements,"[2]; souris pretreated with Harmaline, overall statement",inactif
same,Essai à la tige Rotarod: Défaut de coordination musculaire observé (Nbre de souris),"[3]; 100 mg/kg (ip), 15 min",0/5
same,Essai à la tige Rotarod: Défaut de coordination musculaire observé (Nbre de souris),"[3]; 100 mg/kg (ip), 30 min",0/5
same,Essai à la tige Rotarod: Défaut de coordination musculaire observé (Nbre de souris),"[3]; 100 mg/kg (ip), 60 min",0/5
same,Essai à la tige Rotarod: Défaut de coordination musculaire observé (Nbre de souris),"[3]; 174 mg/kg (ip), 15 min",0/5
same,Essai à la tige Rotarod: Défaut de coordination musculaire observé (Nbre de souris),"[3]; 174 mg/kg (ip), 30 min",0/5
same,Essai à la tige Rotarod: Défaut de coordination musculaire observé (Nbre de souris),"[3]; 174 mg/kg (ip), 60 min",0/5
same,Performance à l'essai Rotarod Moyenne (Sec),"[3]; 174 mg/kg i.p., témoin 11,3 ± 3,1","16,4 ± 2,4 (30) Sec"
same,Rythme cardiaque Durée (min),[4]; [10],non mani-festée à 150
same,Rythme cardiaque Mesure à,[4]; [10],30 min
same,Rythme cardiaque Pic,[4]; [10],75 min
same,Rythme cardiaque Durée,[4]; 100 mg par voie intraveineuse,45 min
same,Rythme cardiaque Mesure à,[4]; 100 mg par voie intraveineuse,5 min
same,Rythme cardiaque Pic,[4]; 100 mg par voie intraveineuse,10 min
same,LD50 at 360 h,[5],> 5000 mg/kg
same,activité inhibitrice sur la DOPA-oxydase (coloration du milieu mesurée a 540 mµ),[6],comparable a celle de la DFS
same,% Inhibition à 0°C de l'incorporation de la sérotonine dans les cellules nerveuses,[7],50%
same,multiplication de M. Leprae sur les pattes des souris,"[8]; 4 mois après inoculation, témoins 33,8 X","2,8 X"
same,multiplication de M. Leprae sur les pattes des souris,"[8]; 6 mois après inoculation, témoins 38,4 X",Négatif
same,Activité anticon-vulsivante MES % protection,"[9]; 100 mg/kg (ip), 15 min, Tableau 2",0%
same,Activité anticon-vulsivante MES % protection,"[9]; 100 mg/kg (ip), 30 min",0%
same,Activité anticon-vulsivante MES % protection,"[9]; 100 mg/kg (ip), 60 min",0%
same,Activité anticon-vulsivante MES % protection,"[9]; 174 mg/kg (ip), 15 min",20%
same,Activité anticon-vulsivante MES % protection,"[9]; 174 mg/kg (ip), 30 min",20%
same,Activité anticon-vulsivante MES % protection,"[9]; 174 mg/kg (ip), 60 min",0%
